One assay deals with CDK-9/Cyclin T1 (Homo sapiens, UniProt P50750). Briefly: CDK inhibition assay, CDK-9/Cyclin T1 against substrate peptide, 33P-ATP. Type of assay: biochemical. The conditions noted are these: at 500 nM. How it is done:
(50-1000 cpm/pmole) and incubated for 30 min at room temperature. Assays were stopped by addition of 5 µl of 0.5 M (3%) orthophosphoric acid and then harvested onto P81 Unifilter plates with a wash buffer of 50 mM orthophosphoric acid.

The next assay concerns MDA-MB435. Briefly: MTT assay on cancer cell line MDA-MB435. It counts as cell-based, Human. Particulars: Homo sapiens, MDA-MB-435. How it is done:
(§1) Cell culture, growth conditions and treatments. […] Different molecules were dissolved in DMSO and were delivered to cell cultures in complete medium.
(In general: Tetrazolium assays rely on reduction of a dye to a coloured formazan, in cell work by metabolically active cells.)

Another assay concerns PC-3. Briefly: MTT assay on cancer cell line PC-3. Type of assay: cell-based, human. Particulars: Homo sapiens. How it is done:
as §1

The test system of another assay is MCF-7. Briefly: MTT assay on cancer cell line MCF-7. Type of assay: cell-based, Human. The conditions noted are these: Homo sapiens. As to the method: as §1
The subject of the next assay is HCT-116. Briefly: MTT assay on cancer cell line HCT-116. Type of assay: cell-based, human. Particulars: Homo sapiens. How it is done:
as §1

A further assay relates to SHSY-5Y. Briefly: MTT assay on cancer cell line SHSY-5Y. Type of assay: cell-based, human. Particulars: Homo sapiens, SH-SY5Y. As to the method: as §1
The next assay has as its target CDK-2/cyclin A (Homo sapiens, UniProt P24941). Briefly: CDK inhibition assay, CDK-2/cyclin A against Histone HI, 33P-ATP. Type of assay: biochemical. Particulars: at 500 nM. Put shortly:
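CDK-2/cyclin A (5-20 mU) phosphorylating Histone HI (1 mg/ml) in 50 mM Hepes pH 7.5, 100 mM NaCl, 10 mM Mg acetate, 0.02 mM [33P-γ-ATP], 30 min at room temperature. Stopped with orthophosphoric acid, captured on P81 filters for radiometric readout.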

Where [1] appears, read: Table-6, read-out: In vitro CDK9 % of inhibition.
Where [2] appears, read: read-out: inhibition against CDK9.
Where [3] appears, read: MDA-MB435, at 10µM, Table 8, read-out: In vitro cell inhibition, % of inhibition, MDA-MB435.
Where [4] appears, read: at 10 µM, read-out: inhibition against MDAMB-435 cell lines.
Where [5] appears, read: Table 8, read-out: In vitro cell inhibition, % of inhibition, PC-3.
Where [6] appears, read: read-out: inhibition against PC-3 cell lines.
[7] abbreviates: MCF7, MCF-7, Table 8, read-out: In vitro cell inhibition, % of inhibition, MCF-7.
The mark [8] stands for this setting: MCF7, read-out: inhibition against MCF-7 cell lines.
[9] abbreviates: at 10µM, Table 8, read-out: In vitro cell inhibition, % of inhibition, HCT-116.
Where [10] appears, read: at 10 µM, read-out: inhibition against HCT-116 cell lines.
Setting [11] is: SHSY-5Y, Table 8, read-out: In vitro cell inhibition, % of inhibition, SHSY-5Y.
[12] abbreviates: read-out: inhibition against SHSY-5Y cell lines.
[13] abbreviates: Table-6, read-out: In vitro CDK2 % of inhibition.
Where [14] appears, read: read-out: inhibition against CDK2.

Where two headings read alike, the source gives them in different places.

For orientation: inhibition means the percentage by which the read-out fell short of the control.

Sequence of CDK-9/Cyclin T1 (P50750 whole entry): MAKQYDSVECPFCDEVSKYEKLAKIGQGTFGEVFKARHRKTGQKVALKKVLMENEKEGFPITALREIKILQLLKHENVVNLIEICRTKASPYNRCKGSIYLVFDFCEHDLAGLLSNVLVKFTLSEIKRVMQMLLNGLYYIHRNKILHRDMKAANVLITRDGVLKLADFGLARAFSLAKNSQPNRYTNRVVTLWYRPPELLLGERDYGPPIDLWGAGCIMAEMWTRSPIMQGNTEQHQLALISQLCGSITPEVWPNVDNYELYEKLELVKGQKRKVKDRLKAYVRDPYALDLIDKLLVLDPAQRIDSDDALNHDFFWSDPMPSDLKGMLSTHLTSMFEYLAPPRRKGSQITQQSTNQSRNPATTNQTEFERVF
Sequence of CDK-9/Cyclin T1 (O60563 whole entry partner): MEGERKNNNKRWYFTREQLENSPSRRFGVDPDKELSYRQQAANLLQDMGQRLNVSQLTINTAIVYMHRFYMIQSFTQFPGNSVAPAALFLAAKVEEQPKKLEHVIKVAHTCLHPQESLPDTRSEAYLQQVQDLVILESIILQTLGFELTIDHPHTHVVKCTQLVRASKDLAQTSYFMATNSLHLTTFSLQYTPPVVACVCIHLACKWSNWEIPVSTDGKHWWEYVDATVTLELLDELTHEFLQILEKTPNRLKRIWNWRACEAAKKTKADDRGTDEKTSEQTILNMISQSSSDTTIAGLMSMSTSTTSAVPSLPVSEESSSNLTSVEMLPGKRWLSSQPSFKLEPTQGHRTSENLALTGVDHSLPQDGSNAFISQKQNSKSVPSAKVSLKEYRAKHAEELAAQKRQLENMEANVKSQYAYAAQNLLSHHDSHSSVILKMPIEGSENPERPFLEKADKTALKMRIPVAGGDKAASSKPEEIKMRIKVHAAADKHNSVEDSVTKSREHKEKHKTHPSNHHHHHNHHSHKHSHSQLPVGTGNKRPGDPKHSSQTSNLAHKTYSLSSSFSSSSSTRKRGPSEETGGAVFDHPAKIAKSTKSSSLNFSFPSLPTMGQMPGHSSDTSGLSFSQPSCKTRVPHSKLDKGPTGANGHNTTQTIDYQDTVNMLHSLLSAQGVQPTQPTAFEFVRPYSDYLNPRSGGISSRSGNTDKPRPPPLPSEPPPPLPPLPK

In the case of `COc1ccc(-c2cnc3[nH]cc(-c4ccnc(NC5CC5)n4)c3c2)cc1` [1A11, N-cyclopropyl-4-(5-(4-methoxyphenyl)-1H-pyrrolo[2,3-b]pyridin-3-yl)pyrimidin-2-amine], the inhibition at 0.5 µM at CDK-9/Cyclin T1 (setting [1]), at CDK-9/Cyclin T1 (setting [2]), on CDK-2/cyclin A (setting [13]) and at CDK-2/cyclin A (setting [14]) was over 70% throughout. The inhibition at 10 µM was over 70% in the assay on MDA-MB435 (setting [3]); over 70% in the assay with MDA-MB435 (setting [4]); over 50% in the assay on PC-3 (setting [5]); over 50% in the assay with PC-3 (setting [6]); over 70% with MCF-7 (setting [7]); over 70% with MCF-7 (setting [8]). The inhibition at 10 µM with HCT-116 (setting [9]), with HCT-116 (setting [10]), in the assay with SHSY-5Y (setting [11]) and with SHSY-5Y (setting [12]) was over 70% each time.

As to `Clc1ccc(-c2cnc3[nH]cc(-c4ccnc(NC5CC5)n4)c3c2)cc1` [1A12, 4-(5-(4-chlorophenyl)-1H-pyrrolo[2,3-b]pyridin-3-yl)-N-cyclopropylpyrimidin-2-amine], the inhibition at 0.5 µM at CDK-9/Cyclin T1 (setting [1]), on CDK-9/Cyclin T1 (setting [2]), at CDK-2/cyclin A (setting [13]) and at CDK-2/cyclin A (setting [14]) was over 70% in each case. Moreover, the inhibition at 10 µM with MDA-MB435 (setting [3]) is over 70%; with MDA-MB435 (setting [4]), over 70%; with PC-3 (setting [5]) it was over 50%; with PC-3 (setting [6]) it was over 50%; in the assay on MCF-7 (setting [7]), over 70%; with MCF-7 (setting [8]), over 70%. Also, the inhibition at 10 µM with HCT-116 (setting [9]), in the assay with HCT-116 (setting [10]), with SHSY-5Y (setting [11]) and in the assay on SHSY-5Y (setting [12]) was over 70% throughout.

For `c1ccc2c(-c3cnc4[nH]cc(-c5ccnc(NC6CC6)n5)c4c3)cccc2c1` [1A14, N-cyclopropyl-4-(5-(naphthalen-1-yl)-1H-pyrrolo[2,3-b]pyridin-3-yl)pyrimidin-2-amine], the inhibition at 0.5 µM on CDK-9/Cyclin T1 (setting [1]), at CDK-9/Cyclin T1 (setting [2]), on CDK-2/cyclin A (setting [13]) and at CDK-2/cyclin A (setting [14]) was over 50% throughout. The inhibition at 10 µM in the assay with MDA-MB435 (setting [3]), with MDA-MB435 (setting [4]), in the assay on PC-3 (setting [5]), with MCF-7 (setting [7]), in the assay on MCF-7 (setting [8]) and with HCT-116 (setting [9]) was over 70% throughout. Besides, the inhibition at 10 µM in the assay on HCT-116 (setting [10]), in the assay with SHSY-5Y (setting [11]) and with SHSY-5Y (setting [12]) was over 70% throughout.

Take `c1cncc(-c2cnc3[nH]cc(-c4ccnc(NC5CC5)n4)c3c2)c1` [1A15, N-cyclopropyl-4-(5-(pyridin-3-yl)-1H-pyrrolo[2,3-b]pyridin-3-yl)pyrimidin-2-amine]: the inhibition at 0.5 µM on CDK-9/Cyclin T1 (setting [1]), on CDK-9/Cyclin T1 (setting [2]), at CDK-2/cyclin A (setting [13]) and on CDK-2/cyclin A (setting [14]) was over 50% in each case. Besides, the inhibition at 10 µM with MDA-MB435 (setting [3]) is over 70%; in the assay on MDA-MB435 (setting [4]) it was over 70%; with PC-3 (setting [5]) it was over 50%; with PC-3 (setting [6]) it was over 50%; in the assay on MCF-7 (setting [7]), over 70%; in the assay with MCF-7 (setting [8]), over 70%. The inhibition at 10 µM in the assay on HCT-116 (setting [9]), in the assay on HCT-116 (setting [10]), with SHSY-5Y (setting [11]) and in the assay with SHSY-5Y (setting [12]) was over 70% in each case.

As for `c1cc(-c2c[nH]c3ncc(-c4ccoc4)cc23)nc(NC2CC2)n1` [1A16, N-cyclopropyl-4-(5-(furan-3-yl)-1H-pyrrolo[2,3-b]pyridin-3-yl)pyrimidin-2-amine], the inhibition at 0.5 µM on CDK-9/Cyclin T1 (setting [1]), at CDK-9/Cyclin T1 (setting [2]), on CDK-2/cyclin A (setting [13]) and at CDK-2/cyclin A (setting [14]) was over 70% throughout. In addition, the inhibition at 10 µM was over 70% in the assay with MDA-MB435 (setting [3]); over 70% in the assay on PC-3 (setting [5]); over 50% with MCF-7 (setting [7]); over 50% with MCF-7 (setting [8]); over 70% in the assay on HCT-116 (setting [9]); over 50% with SHSY-5Y (setting [11]).

For the compound `Fc1ccc(-c2cnc3[nH]cc(-c4ccnc(NC5CCCC5)n4)c3c2)cc1` [1A22, N-cyclopentyl-4-(5-(4-fluorophenyl)-1H-pyrrolo[2,3-b]pyridin-3-yl)pyrimidin-2-amine], the inhibition at 0.5 µM at CDK-9/Cyclin T1 (setting [1]) and on CDK-2/cyclin A (setting [13]) was over 50% each time. Further, the inhibition at 10 µM with MDA-MB435 (setting [3]) was under 50%; in the assay on PC-3 (setting [5]) it was over 50%; in the assay with MCF-7 (setting [7]), over 50%; in the assay on MCF-7 (setting [8]), over 50%; with HCT-116 (setting [9]), over 50%; in the assay with SHSY-5Y (setting [11]) it was over 70%. The inhibition at 10 µM with SHSY-5Y (setting [12]) is over 70%.

Consider `FC(F)(F)Oc1ccc(-c2cnc3[nH]cc(-c4ccnc(NC5CCCC5)n4)c3c2)cc1` [1A23, N-cyclopentyl-4-(5-(4-(trifluoromethoxy)phenyl)-1H-pyrrolo[2,3-b]pyridin-3-yl)pyrimidin-2-amine], for which the inhibition at 0.5 µM on CDK-9/Cyclin T1 (setting [1]) was over 50%; on CDK-2/cyclin A (setting [13]), over 70%. The inhibition at 10 µM with MDA-MB435 (setting [3]) is under 50%; with PC-3 (setting [5]) it was over 50%; in the assay on MCF-7 (setting [7]), over 50%; in the assay with MCF-7 (setting [8]), over 50%; in the assay with HCT-116 (setting [9]), over 50%; in the assay on SHSY-5Y (setting [11]), over 70%. Also, the inhibition at 10 µM with SHSY-5Y (setting [12]) was over 70%.

Regarding `COc1ccc(-c2cnc3[nH]cc(-c4ccnc(NC5CCCC5)n4)c3c2)cc1` [1A31, N-cyclopentyl-4-(5-(4-methoxyphenyl)-1H-pyrrolo-[2,3-b]pyridin-3-yl)pyrimidin-2-amine], the inhibition at 0.5 µM at CDK-9/Cyclin T1 (setting [1]), at CDK-9/Cyclin T1 (setting [2]), at CDK-2/cyclin A (setting [13]) and at CDK-2/cyclin A (setting [14]) was over 50% throughout. The inhibition at 10 µM in the assay with MDA-MB435 (setting [3]) is over 50%; in the assay on PC-3 (setting [5]), over 50%; with PC-3 (setting [6]) it was over 50%; in the assay with MCF-7 (setting [7]), under 50%; in the assay on MCF-7 (setting [8]), under 50%; with HCT-116 (setting [9]), over 50%. The inhibition at 10 µM in the assay with SHSY-5Y (setting [11]) and in the assay with SHSY-5Y (setting [12]) was over 70% each time.

With `FC(F)(F)c1ccc(-c2cnc3[nH]cc(-c4ccnc(NC5CCCCCC5)n4)c3c2)cc1` [1A41, N-cycloheptyl-4-(5-(4-(trifluoromethyl)phenyl)-1H-pyrrolo[2,3-b]pyridin-3-yl)pyrimidin-2-amine], the inhibition at 0.5 µM on CDK-9/Cyclin T1 (setting [1]) and on CDK-2/cyclin A (setting [13]) was under 50% throughout. Moreover, the inhibition at 10 µM with MDA-MB435 (setting [3]) is under 50%; with PC-3 (setting [5]), under 50%; in the assay with MCF-7 (setting [7]) it was over 50%; with MCF-7 (setting [8]), over 50%; in the assay on HCT-116 (setting [9]), over 50%; in the assay on SHSY-5Y (setting [11]) it was over 70%. For the same compound, the inhibition at 10 µM in the assay with SHSY-5Y (setting [12]) is over 70%.

Consider `Fc1ccc(-c2cnc3[nH]cc(-c4ccnc(NC5CCCCCC5)n4)c3c2)cc1` [1A42, N-cycloheptyl-4-(5-(4-fluorophenyl)-1H-pyrrolo[2,3-b]pyridin-3-yl)pyrimidin-2-amine], for which the inhibition at 0.5 µM on CDK-9/Cyclin T1 (setting [1]), on CDK-9/Cyclin T1 (setting [2]), on CDK-2/cyclin A (setting [13]) and on CDK-2/cyclin A (setting [14]) was over 50% each time. The inhibition at 10 µM in the assay on MDA-MB435 (setting [3]) is over 70%; in the assay on PC-3 (setting [5]), over 50%; in the assay on PC-3 (setting [6]) it was over 50%; with MCF-7 (setting [7]), under 50%; in the assay with MCF-7 (setting [8]), under 50%; with HCT-116 (setting [9]), over 50%. Moreover, the inhibition at 10 µM in the assay with SHSY-5Y (setting [11]) and with SHSY-5Y (setting [12]) was over 70% throughout.

Regarding `COc1ccc(-c2cnc3[nH]cc(-c4ccnc(NC5CCCCCC5)n4)c3c2)cc1` [1A51, N-cycloheptyl-4-(5-(4-methoxyphenyl)-1H-pyrrolo[2,3-b]pyridin-3-yl)pyrimidin-2-amine], the inhibition at 0.5 µM was over 70% on CDK-9/Cyclin T1 (Table-7, read-out: In vitro CDK9 % of inhibition); over 70% on CDK-9/Cyclin T1 (setting [2]); over 70% at CDK-2/cyclin A (Table-7, read-out: In vitro CDK2 % of inhibition); over 70% at CDK-2/cyclin A (setting [14]). Also, the inhibition at 10 µM in the assay with MDA-MB435 (setting [3]) is under 50%; in the assay on PC-3 (setting [5]) it was under 50%; with MCF-7 (setting [7]), over 70%; with MCF-7 (setting [8]), over 70%; in the assay on HCT-116 (setting [9]), over 50%; with SHSY-5Y (setting [11]), over 50%.

These data come from patent publication EP3383875B1, “3-PYRIMIDINYL PYRROLO [2,3-B] PYRIDINE AS ANTICANCER AGENTS AND THE PROCESS FOR THE PREPARATION THEREOF” (Council Of Scientific & Industrial Research, priority 2015, dated 2017).
